Assay results: ChEMBL document CHEMBL3044870, “Effect of clomazone on various market classes of dry beans” (Crop Prot, 2007)

Columns and labels:
Type in all cases: organism-based
Conditions in all cases: in vivo, other
Phaseolus vulgaris [1] = assay: Phytotoxicity against Phaseolus vulgaris (white beans) assessed as visual crop injury at 1116 g a.i./ha applied pre-emergence 1 to 2 days post-planting measured on day 14 post-emergence relative to control
Phaseolus vulgaris [2] = assay: Phytotoxicity against Phaseolus vulgaris (pinto beans) assessed as visual crop injury at 2232 g a.i./ha applied pre-emergence 1 to 2 days post-planting measured on day 14 post-emergence relative to control
Phaseolus vulgaris [3] = assay: Phytotoxicity against Phaseolus vulgaris (dry beans) assessed as visual crop injury at 1116 g a.i./ha applied pre-emergence 1 to 2 days post-planting measured on day 7 post-emergence relative to control
Phaseolus vulgaris [4] = assay: Phytotoxicity against Phaseolus vulgaris (white beans) assessed as yield at 2232 g a.i./ha applied pre-emergence 1 to 2 days post-planting measured on day 42 post-emergence (reference value: 3 tons/ha)
Phaseolus vulgaris [5] = assay: Phytotoxicity against Phaseolus vulgaris (yellow eye beans) assessed as shoot dry weight at 1116 g a.i./ha applied pre-emergence 1 to 2 days post-planting measured on day 42 post-emergence (reference value: 162 g/m)
Phaseolus vulgaris [6] = assay: Phytotoxicity against Phaseolus vulgaris (otebo beans) assessed as shoot dry weight at 1116 g a.i./ha applied pre-emergence 1 to 2 days post-planting measured on day 42 post-emergence (reference value: 188 g/m)
Phaseolus vulgaris [7] = assay: Phytotoxicity against Phaseolus vulgaris (white beans) assessed as plant height at 2232 g a.i./ha applied pre-emergence 1 to 2 days post-planting measured on day 28 post-emergence (reference value: 36 cm)

## CC1(C)CON(Cc2ccccc2Cl)C1=O [CLOMAZONE]
Phaseolus vulgaris [1]
  Activity: 2%
Phaseolus vulgaris [2]
  Activity: 11%
Phaseolus vulgaris [3]
  Activity: 5%
Phaseolus vulgaris [4]
  Crop_yield: 3.2 tons/ha
Phaseolus vulgaris [5]
  Activity: 160 g/m
Phaseolus vulgaris [6]
  Activity: 189 g/m
Phaseolus vulgaris [7]
  Activity: 32 cm
